This assay is described as follows: Antagonist activity on agonist stimulated [35S]GTP-gamma-S, binding in guinea pig caudate membranes (10 uM SNC-80 as the agonist ligand for delta-receptor). (GTPγS is a poorly hydrolysed GTP analogue; its binding reports G protein activation.)

Each structure is given as a SMILES string.

For orientation: Ki means a dissociation constant, usually derived from enzyme kinetics or from competition with a known ligand. Read a high Ki as weaker binding.

Molecule `NC(N)=Nc1cnc2c(c1)C[C@@]1(O)[C@H]3Cc4ccc(O)c5c4[C@@]1(CCN3CC1CC1)[C@H]2O5` [6-amino(imino)methylamino-19-cyclopropylmethyl-11-oxa-8,19-diazahexacyclo[10.9.1.01,10.02,18.04,9.016,22]docosa-4(9),5,7,12,14,16(22)-hexaene-2,13-diol; ditrifluoracetic acid] gave a Ki of 6.5 nM.

As to `Oc1ccc2c3c1O[C@H]1c4ncc(-n5cccc5)cc4C[C@@]4(O)[C@@H](C2)N(CC2CC2)CC[C@]314` [19-cyclopropylmethyl-6-(1H-1-pyrrolyl)-11-oxa-8,19-diazahexacyclo[10.9.1.01,10.02,18.04,9.016,22]docosa-4(9),5,7,12,14,16(22)-hexaene-2,13-diol], the affinity corresponds to a Ki of 0.4 nM.
